Measured values published in ChEMBL document CHEMBL3638844, “Heterocyclic kinase inhibitors” (2014).

Tests used:
[1] = molecular target: Serine/threonine-protein kinase pim-3 (Homo sapiens, UniProt Q86V86); assay: ATP Depletion Assay: The activity of PIM3 is measured using a luciferase-luciferin based ATP detection reagent to quantify ATP depletion resulting from kinase-catalyzed phosphoryl transfer to a peptide substrate. Compounds to be tested are dissolved in 100% DMSO and directly distributed into white 384-well plates at 0.5 uA per well. To start the reaction, 10 ul of 10 nM Pim3 kinase and 200 uM BAD peptide (RSRHSSYPAGT-OH) in assay buffer (50 mM HEPES pH 7.5, 5 mM MgCl2, 1 mM DTT, 0.05% BSA) is added into each well. After 15 minutes, 10 ul of 80 uM ATP in assay buffer is added. Final assay concentrations are […], 40 uM ATP, 100 uM BAD peptide and 2.5% DMSO. The reaction is performed until approximately 50% of the ATP is depleted, then stopped by the addition of 20 ul KinaseGlo Plus (Promega Corporation) solution. The stopped reaction is incubated for 10 minutes and the remaining ATP detected via luminescence on the Victor2 (Perkin Elmer).
[2] = molecular target: Serine/threonine-protein kinase pim-1 (Homo sapiens, UniProt P11309); assay: ATP Depletion Assay: The activity of PIM1 is measured using a luciferase-luciferin based ATP detection reagent to quantify ATP depletion resulting from kinase-catalyzed phosphoryl transfer to a peptide substrate. Compounds to be tested are dissolved in 100% DMSO and directly distributed into white 384-well plates at 0.5 uA per well. To start the reaction, 10 ul of 5 nM Pim1 kinase and 80 uM BAD peptide (RSRHSSYPAGT-OH) in assay buffer (50 mM HEPES pH 7.5, 5 mM MgCl2, 1 mM DTT, 0.05% BSA) is added into each well. After 15 minutes, 10 ul of 40 uM ATP in assay buffer is added. Final assay concentrations are 2.5 nM PIM1, 20 uM ATP, 40 uM BAD peptide and 2.5% DMSO. The reaction is performed until approximately 50% of the ATP is depleted, then stopped with the addition of 20 ul KinaseGlo Plus (Promega Corporation) solution. The stopped reaction is incubated for 10 minutes and the remaining ATP detected via luminescence on the Victor2 (Perkin Elmer).
[3] = molecular target: Serine/threonine-protein kinase pim-2 (Homo sapiens, UniProt Q9P1W9); assay: ATP Depletion Assay: The activity of PIM2 is measured using a luciferase-luciferin based ATP detection reagent to quantify ATP depletion resulting from kinase-catalyzed phosphoryl transfer to a peptide substrate. Compounds to be tested are dissolved in 100% DMSO and directly distributed into white 384-well plates at 0.5 ul per well. To start the reaction, 10 ul of 10 nM Pim2 kinase and 20 uM BAD peptide (RSRHSSYPAGT-OH) in assay buffer (50 mM HEPES pH 7.5, 5 mM MgCl2, 1 mM DTT, 0.05% BSA) is added into each well. After 15 minutes, 10 ul of 8 uM ATP in assay buffer is added. Final assay concentrations are 5 nM PIM2, 4 uM ATP, 10 uM BAD peptide and 2.5% DMSO. The reaction is performed until approximately 50% of the ATP is depleted, then stopped with the addition of 20 ul KinaseGlo Plus (Promega Corporation) solution. The stopped reaction is incubated for 10 minutes and the remaining ATP detected via luminescence on the Victor2 (Perkin Elmer).
Chain of Serine/threonine-protein kinase pim-2 (Q9P1W9 whole entry): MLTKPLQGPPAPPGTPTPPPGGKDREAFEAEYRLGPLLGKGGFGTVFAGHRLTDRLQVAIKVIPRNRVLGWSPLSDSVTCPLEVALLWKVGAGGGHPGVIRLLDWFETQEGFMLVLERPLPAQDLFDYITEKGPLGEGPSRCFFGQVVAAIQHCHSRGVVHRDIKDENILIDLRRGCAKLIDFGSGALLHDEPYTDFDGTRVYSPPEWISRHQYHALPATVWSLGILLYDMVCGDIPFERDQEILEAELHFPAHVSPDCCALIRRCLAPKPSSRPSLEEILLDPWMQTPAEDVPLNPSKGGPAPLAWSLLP

Chain of Serine/threonine-protein kinase pim-1 (P11309 whole entry): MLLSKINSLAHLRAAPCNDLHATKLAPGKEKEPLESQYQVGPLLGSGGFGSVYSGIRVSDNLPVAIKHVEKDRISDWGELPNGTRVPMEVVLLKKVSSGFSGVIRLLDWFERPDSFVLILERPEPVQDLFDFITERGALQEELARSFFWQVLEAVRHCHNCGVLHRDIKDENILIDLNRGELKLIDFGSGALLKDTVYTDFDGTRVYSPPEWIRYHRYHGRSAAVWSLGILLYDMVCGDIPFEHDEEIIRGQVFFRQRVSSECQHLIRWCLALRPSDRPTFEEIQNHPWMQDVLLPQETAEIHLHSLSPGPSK

SMILES	IC50 [1] [nM]	IC50 [2] [nM]	IC50 [3] [nM]
N[C@H]1C[C@@H](O)CN(c2ccncc2Nc2cccc3ccc(-c4c(F)cccc4F)nc23)C1	61	589	512
N[C@H]1C[C@@H](CO)CN(c2ccncc2Nc2cccc3ccc(-c4c(F)cccc4F)nc23)C1		796	286
